Measurements reported in the NIST ThermoML archive (doi:10.1021/je201009c).

Assay: xn = mol fraction of the nth substance listed
Conditions: for surface tension liquid-gas: Capillary rise; for viscosity / mass density: 100.8 kPa, Liquid; for viscosity: Falling or rolling sphere viscometry; for mass density: Vibrating tube method

OCc1ccccc1 [benzenemethanol] + CCO
Conditions	mass density [kg/m3]	surface tension liquid-gas [mN/m]	viscosity [mPa·s]
293.15 K, x2 = 0	1045.44	39.2	6.287
293.15 K, x2 = 0.05	1038.93	38.7	5.903
293.15 K, x2 = 0.1	1032.01	38.1	5.548
293.15 K, x2 = 0.1504	1024.72	37.5	5.197
293.15 K, x2 = 0.1999	1017.09	36.8	4.871
293.15 K, x2 = 0.2502	1008.95	36.1	4.55
293.15 K, x2 = 0.3003	1000.31	35.3	4.236
293.15 K, x2 = 0.3499	991.24	34.5	3.94
293.15 K, x2 = 0.3998	981.52	33.6	3.655
293.15 K, x2 = 0.45	971.12	32.7	3.377
293.15 K, x2 = 0.5001	960.01	31.8	3.107
293.15 K, x2 = 0.55	948.23	30.9	2.857
293.15 K, x2 = 0.5999	935.57	29.9	2.623
293.15 K, x2 = 0.65	921.93	28.9	2.392
293.15 K, x2 = 0.6997	907.34	28	2.169
293.15 K, x2 = 0.75	891.49	27.1	1.971
293.15 K, x2 = 0.7999	874.42	26.1	1.782
293.15 K, x2 = 0.8496	855.94	25.2	1.611
293.15 K, x2 = 0.8998	835.44	24.3	1.454
293.15 K, x2 = 0.95	813.26	23.3	1.305
303.15 K, x2 = 0	1037.45	38.1	4.579
303.15 K, x2 = 0.05	1030.91	37.5	4.276
303.15 K, x2 = 0.1	1024.02	36.9	4.006
303.15 K, x2 = 0.1504	1016.76	36.2	3.761
303.15 K, x2 = 0.1999	1009.06	35.5	3.529
303.15 K, x2 = 0.2502	1000.9	34.8	3.321
303.15 K, x2 = 0.3003	992.29	34.1	3.117
303.15 K, x2 = 0.3499	983.16	33.3	2.924
303.15 K, x2 = 0.3998	973.34	32.5	2.735
303.15 K, x2 = 0.45	962.91	31.6	2.542
303.15 K, x2 = 0.5001	951.76	30.7	2.368
303.15 K, x2 = 0.55	939.95	29.8	2.206
303.15 K, x2 = 0.5999	927.33	28.8	2.03
303.15 K, x2 = 0.65	913.64	27.8	1.873
303.15 K, x2 = 0.6997	898.99	26.9	1.716
303.15 K, x2 = 0.75	883.14	26	1.568
303.15 K, x2 = 0.7999	865.99	25.1	1.423
303.15 K, x2 = 0.8496	847.51	24.2	1.292
303.15 K, x2 = 0.8998	827.13	23.3	1.173
303.15 K, x2 = 0.95	805.04	22.3	1.06
313.15 K, x2 = 0	1029.61	37.2	3.335
313.15 K, x2 = 0.05	1023.04	36.6	3.171
313.15 K, x2 = 0.1	1016.21	35.9	3.002
313.15 K, x2 = 0.1504	1008.86	35.3	2.841
313.15 K, x2 = 0.1999	1001.16	34.6	2.688
313.15 K, x2 = 0.2502	992.96	33.9	2.539
313.15 K, x2 = 0.3003	984.28	33.2	2.389
313.15 K, x2 = 0.3499	975.05	32.4	2.244
313.15 K, x2 = 0.3998	965.24	31.6	2.101
313.15 K, x2 = 0.45	954.84	30.7	1.955
313.15 K, x2 = 0.5001	943.67	29.8	1.819
313.15 K, x2 = 0.55	931.78	28.9	1.684
313.15 K, x2 = 0.5999	919.04	27.9	1.561
313.15 K, x2 = 0.65	905.41	26.9	1.441
313.15 K, x2 = 0.6997	890.69	26	1.332
313.15 K, x2 = 0.75	874.75	25.1	1.236
313.15 K, x2 = 0.7999	857.51	24.2	1.146
313.15 K, x2 = 0.8496	838.83	23.3	1.048
313.15 K, x2 = 0.8998	818.48	22.4	0.972
313.15 K, x2 = 0.95	796.32	21.5	0.899
323.15 K, x2 = 0	1021.5	36.3	2.545
323.15 K, x2 = 0.05	1014.86	35.6	2.439
323.15 K, x2 = 0.1	1007.98	34.9	2.337
323.15 K, x2 = 0.1504	1000.57	34.2	2.238
323.15 K, x2 = 0.1999	992.89	33.5	2.142
323.15 K, x2 = 0.2502	984.67	32.8	2.041
323.15 K, x2 = 0.3003	975.99	32.1	1.941
323.15 K, x2 = 0.3499	966.71	31.3	1.844
323.15 K, x2 = 0.3998	956.84	30.5	1.746
323.15 K, x2 = 0.45	946.37	29.6	1.649
323.15 K, x2 = 0.5001	935.23	28.7	1.556
323.15 K, x2 = 0.55	923.28	27.8	1.462
323.15 K, x2 = 0.5999	910.48	26.8	1.368
323.15 K, x2 = 0.65	896.61	25.8	1.279
323.15 K, x2 = 0.6997	881.89	24.8	1.189
323.15 K, x2 = 0.75	865.88	23.9	1.105
323.15 K, x2 = 0.7999	848.64	23	1.022
323.15 K, x2 = 0.8496	830.07	22.1	0.937
323.15 K, x2 = 0.8998	809.62	21.2	0.854
323.15 K, x2 = 0.95	787.41	20.3	0.774
